Data as given in PMC10606765, “Study of the Structural Chemistry of the Inclusion Complexation of 4-Phenylbutyrate and Related Compounds with Cyclodextrins in Solution: Differences in Inclusion Mode with Cavity Size Dependency” (International Journal of Molecular Sciences, 2023).
Like-named read-outs stand apart in the source and are kept apart here. Marks after values point to notes of the source that are not given here.

How the values were obtained:
[1] = set-up: method as in PMID 36548517; conditions: proton Y monitored, 0.1 M sodium borate/D2O, 25 °C, total concentration 1.0 × 10^−2 M; cited from earlier work
[2] = set-up: method as in PMID 36548517; conditions: phase solubility, 0.1 M phosphate buffer (pH 2.1), 25 °C, mean ± SD (n = 3); cited from earlier work
[3] = set-up: method as in PMID 36548517; conditions: 0.1 M phosphate buffer (pH 2.1), 25 °C, cited from earlier work
[4] = set-up: method as in PMID 36548517; conditions: phase solubility, 0.1 M phosphate buffer (pH 2.1), 25 °C, mean ± SD (n = 3); cited from earlier work; remark: listed apart in the source
[5] = Phase solubility study with βCD; type: physicochemical; conditions: 0.1 M phosphate buffer (pH 2.1), 25 °C, mean ± SD (n = 3)
Protocol: (§1) Phase solubility studies were conducted according to the method described by Higuchi and Connors. Briefly, 1 mL of CD solutions (0 to 14 mM, pH 2.1) were added to excess amounts of PB or related compounds placed in screw cap tubes. The resulting samples were shaken for 72 h at 25 °C and 120 rpm (Multi Shaker MMS-3020 in a temperature control chamber FMC-1000; Eyela Co., Ltd., Tokyo, Japan). The resulting suspensions were filtered through 0.2 µm membrane filters (Minisart RC 4, Sartorius Stedim Lab Ltd., Stonehouse, UK) and diluted appropriately. The solubility of PB or related compounds was determined by HPLC, and the data were used to construct phase solubility diagrams. The guest/host ratios for the systems showing BS-type solubility diagrams were estimated as the quotient of the amount of undissolved guest at the start of the plateau region and the CD concentration range corresponding to the plateau region.
(§2) HPLC measurements were performed according to a previous report using a JASCO HPLC system (Jasco Corp., Tokyo, Japan). A YMC-PACK ODS AM 303 column (5 µm, 250 mm × 4.6 mm, YMC Co., Kyoto, Japan) was used as the stationary phase and was maintained at 40 °C. […] For PC and PH, the elution program used was 0–7 min (50–100% B), 7–10 min (100% B), and 10–15 min (100–50% B) at a constant flow rate of 1 mL/min.

[6] = 1H NMR continuous variation plot with αCD; type: binding; conditions: proton Y monitored, 0.1 M sodium borate/D2O, 25 °C, total concentration 1.0 × 10^−2 M
Protocol: ^1H NMR spectra were obtained using a JEOL-A500 spectrometer (Tokyo, Japan) operating at 500 MHz in 5 mm sample tubes at 25 °C using D2O/0.1 M sodium borate (pH meter reading of 9.4) as solvent. The resonance at 4.68 to 4.75 ppm, due to residual solvents (H2O and HOD), was used as an internal reference. Chemical shifts are given as parts per million (ppm), with an accuracy of ±0.001. No external reference was used to avoid possible interactions with the CDs. The ^1H NMR signals of the guests (PB and related compounds) were assigned by 2D ^1H-^1H correlation spectroscopy (COSY), whereas those of the CDs were assigned according to a previous report. The complex stoichiometries were determined by the continuous variation method, where the total concentrations of CD and guest were kept constant at 1.0 × 10^−2 M. In addition, the changes in the chemical shift of CDs and the guest protons in their equimolar systems (5.0 × 10^−3 M) were monitored. […] The stability constant values of the complexes formed by PH were determined from the curves. Two-dimensional ROESY NMR experiments were performed for the CD-PH systems in the phase-sensitive mode using the same spectrometer. Each spectrum consisted of a matrix of F2 by F1 covering a sweep width of 5000 Hz with 36 scans. The spin-lock mixing time was 800 ms, with a relaxation delay of 4 s, and a 90° pulse width of 11.8 µs. The concentration of guest and host were 2.5 × 10^−2 M/1.0 × 10^−1 M (PH/αCD), 1.5 × 10^−2 M/2.5 × 10^−2 M (PH/βCD), and 2.5 × 10^−2 M/2.5 × 10^−2 M (PH/γCD). The stability constants (K1:1) of the PH–CD complexes were estimated by analyzing the first-order dependences of the chemical shift change of PH protons on CD concentration using Equation (2):(2) δobs=δ0+δ1K1:1CDf/1+K1:1CDf where δ0 and δobs are chemical shifts of PH protons without or with CD, respectively, and δ1 is the chemical shift of PH protons in the 1:1 complex.

[7] = Phase solubility study with γCD; type: physicochemical; conditions: 0.1 M phosphate buffer (pH 2.1), 25 °C, mean ± SD (n = 3)
Protocol: as §1, §2

[8] = Phase solubility study with αCD; type: physicochemical; conditions: 0.1 M phosphate buffer (pH 2.1), 25 °C; for Apparent stability constant K αCD / Guest/Host Ratio αCD: phase solubility, mean ± SD (n = 3)
Protocol: as §1, §2

[9] = 1H NMR molar ratio titration with βCD (stability constant); type: binding
Protocol: (§3) ^1H NMR spectra were obtained using a JEOL-A500 spectrometer (Tokyo, Japan) operating at 500 MHz in 5 mm sample tubes at 25 °C using D2O/0.1 M sodium borate (pH meter reading of 9.4) as solvent. The resonance at 4.68 to 4.75 ppm, due to residual solvents (H2O and HOD), was used as an internal reference. Chemical shifts are given as parts per million (ppm), with an accuracy of ±0.001. No external reference was used to avoid possible interactions with the CDs. The ^1H NMR signals of the guests (PB and related compounds) were assigned by 2D ^1H-^1H correlation spectroscopy (COSY), whereas those of the CDs were assigned according to a previous report. The complex stoichiometries were determined by the continuous variation method, where the total concentrations of CD and guest were kept constant at 1.0 × 10^−2 M. In addition, the changes in the chemical shift of CDs and the guest protons in their equimolar systems (5.0 × 10^−3 M) were monitored. […] The stability constant values of the complexes formed by PH were determined from the curves. […]
(§4) The equation was analyzed by the iteration method since the concentration of free CD ([CD]f) is unknown unless K1:1 had been determined beforehand. […] Therefore, by setting [CD]f = [CD]t as a first approximation, Equation (2) was analyzed by a nonlinear least-squares method, and, in turn, [CD]f values were calculated using the obtained apparent K1:1 value. […]

[10] = 1H NMR molar ratio titration with γCD (stability constant); type: binding
Protocol: as §3, §4

[11] = 1H NMR molar ratio titration with αCD (stability constant); type: binding
Protocol: as §3, §4

[12] = NMR value (pH 9.4) vs phase solubility value (pH 2.1)

Row | Structure (SMILES) | Apparent stability constant K βCD [5] | Guest/Host Ratio βCD [5] | Maximum of continuous variation plot, guest/(guest + host) mole fraction, αCD [6] | Apparent stability constant K γCD [7] | Guest/Host Ratio γCD [7] | Phase solubility diagram type with αCD [8] | Apparent stability constant K αCD [8] | Guest/Host Ratio αCD [8] | other results
1 | O=C(O)CCCc1ccccc1 [PB, 4-phenylbutyrate] |  |  |  |  |  |  |  |  | Maximum of continuous variation plot, guest/(guest + host) mole fraction, αCD [1]: 0.5; Apparent stability constant K βCD [2]: 178 ± 23 ^a M^−1; Guest/Host Ratio βCD [2]: 1.02 ± 0.05 ^b; Phase solubility diagram type with αCD [3]: AL-type; Apparent stability constant K αCD ([3]; phase solubility, mean ± SD (n = 3)): 481 ± 26 ^a M^−1; Apparent stability constant K γCD [4]: 119 ± 9 ^a M^−1; Guest/Host Ratio γCD [4]: 2.14 ± 0.08 ^b
2 | O=C(O)CCCCCc1ccccc1 [PC, 6-phenylcaproic acid] | 2283 ± 134 M⁻¹ | 1.08 ± 0.01 | 0.35 | 499 ± 59 M⁻¹ | 2.30 ± 0.03 | BS-type | 1185 ± 35 M⁻¹ | 0.55 ± 0.03 | 
3 | O=C(O)CCCCCCc1ccccc1 [PH, 7-phenylheptanoic acid] | 7458 ± 52 M⁻¹ | 1.02 ± 0.01 | 0.35 | 1213 ± 18 M⁻¹ | 2.20 ± 0.01 | BS-type | 2500 ± 50 M⁻¹ | 0.44 ± 0.01 | Reduction of stability constant of βCD complex compared to value at pH 2.1 [9, 12]: 3 fold; Stability constant K1:1 of βCD complex from 1H NMR chemical shift change ([9]; determined from protons A and X, 0.1 M sodium borate/D2O (pH 9.4), 25 °C): 2513 ± 469 M⁻¹; Reduction of stability constant of γCD complex compared to value at pH 2.1 [10, 12]: 3 fold; Stability constant K1:1 of γCD complex from 1H NMR chemical shift change ([10]; determined from protons C and X, 0.1 M sodium borate/D2O (pH 9.4), 25 °C): 370 ± 6 M⁻¹; Reduction of stability constant of αCD complex compared to value at pH 2.1 [11, 12]: 20 fold; Stability constant K1:1 of αCD complex from 1H NMR chemical shift change ([11]; determined from protons A and Y, 0.1 M sodium borate/D2O (pH 9.4), 25 °C): 123 ± 2 M⁻¹
4 | O=C(O)CCc1ccccc1 [PP, 3-phenylpropionic acid] | 74 ± 3 M⁻¹ |  |  | 34 ± 1 M⁻¹ |  | AL-type | 226 ± 5 M⁻¹ |  | 
5 | O=C(O)CCCCc1ccccc1 [PV, 5-phenylvaleric acid] | 838 ± 52 M⁻¹ | 0.99 ± 0.05 | 0.35 | 223 ± 7 M⁻¹ | 2.21 ± 0.03 | AL-type | 639 ± 20 M⁻¹ |  | 
